# Experimental data published in ChEMBL document CHEMBL3885881, “DrugMatrix”.
# Organism: Rattus norvegicus
# Experiment: DrugMatrix - Regimen: Daily Repeat
# Format: toxicity, organism-based, Sprague-Dawley
# Parameters: regimen Daily Repeat, gender Male, age 6-8 weeks
# Details: in vivo, po, route oral GAVAGE, vehicle 100 % WATER; for ABSOLUTE BASOPHIL / ABSOLUTE EOSINOPHIL / ABSOLUTE LYMPHOCYTE / ABSOLUTE MONOCYTE / ABSOLUTE SEGMENTED NEUTROPHIL / BASOPHIL / EOSINOPHIL / ERYTHROCYTE COUNT / HEMATOCRIT / HEMOGLOBIN / LEUKOCYTE COUNT / LYMPHOCYTE / MEAN CORPUSCULAR HEMOGLOBIN / MEAN CORPUSCULAR HEMOGLOBIN CONCENTRATION / MEAN CORPUSCULAR VOLUME / MONOCYTE / NEUTROPHIL / NUCLEATED RED BLOOD CELLS / PLATELET COUNT: tissue Blood; for ALANINE AMINOTRANSFERASE / ALBUMIN / ALKALINE PHOSPHATASE / ASPARTATE AMINOTRANSFERASE / BLOOD UREA NITROGEN / CARBON DIOXIDE / CHLORIDE / CHOLESTEROL / CREATINE PHOSPHOKINASE / CREATININE / GLUCOSE / LACTATE DEHYDROGENASE / LIPASE / PHOSPHORUS / POTASSIUM / SODIUM / TOTAL BILIRUBIN / TOTAL PROTEIN / URIC ACID: tissue Plasma
# [1] = 14 mg/kg, 72 h, dose level Low, time 3 day
# [2] = 14 mg/kg, 120 h, dose level Low, time 5 day
# [3] = 1500 mg/kg, 72 h, dose level High, time 3 day
# [4] = 1500 mg/kg, 120 h, dose level High, time 5 day
structure (smiles),measurement,setting,value
CN(C)[C@@H]1C(O)=C(C(N)=O)C(=O)[C@@]2(O)C(O)=C3C(=O)c4c(O)cccc4[C@@](C)(O)[C@H]3[C@H](O)[C@@H]12 [OXYTETRACYCLINE],ABSOLUTE BASOPHIL,[1],0 CELLS/uL
same,ABSOLUTE EOSINOPHIL,[1],0 CELLS/uL
same,ABSOLUTE LYMPHOCYTE,[1],14072 CELLS/uL
same,ABSOLUTE MONOCYTE,[1],56.33 CELLS/uL
same,ABSOLUTE SEGMENTED NEUTROPHIL,[1],1938.33 CELLS/uL
same,BASOPHIL,[1],0%
same,EOSINOPHIL,[1],0%
same,ERYTHROCYTE COUNT,[1],5.7 x10E6/uL
same,HEMATOCRIT,[1],36.73%
same,HEMOGLOBIN,[1],14.4 G/DL
same,LEUKOCYTE COUNT,[1],16.07 x10E3/uL
same,LYMPHOCYTE,[1],87.67%
same,MEAN CORPUSCULAR HEMOGLOBIN,[1],25.27 pg
same,MEAN CORPUSCULAR HEMOGLOBIN CONCENTRATION,[1],39.27 G/DL
same,MEAN CORPUSCULAR VOLUME,[1],64.4 fL
same,MONOCYTE,[1],0.33%
same,NEUTROPHIL,[1],12%
same,NUCLEATED RED BLOOD CELLS,[1],0.33 /100WBC
same,PLATELET COUNT,[1],1430 x10E3/uL
same,ALANINE AMINOTRANSFERASE,[1],53.67 u/L
same,ALBUMIN,[1],4.57 G/DL
same,ALKALINE PHOSPHATASE,[1],372 u/L
same,ASPARTATE AMINOTRANSFERASE,[1],89.33 u/L
same,BLOOD UREA NITROGEN,[1],16.33 mg/dL
same,CARBON DIOXIDE,[1],26.67 mmol/L
same,CHLORIDE,[1],103.67 MEQ/L
same,CHOLESTEROL,[1],85.33 mg/dL
same,CREATINE PHOSPHOKINASE,[1],211.67 u/L
same,CREATININE,[1],0.27 mg/dL
same,GLUCOSE,[1],165 mg/dL
same,LACTATE DEHYDROGENASE,[1],160 u/L
same,LIPASE,[1],10 u/L
same,PHOSPHORUS,[1],13.07 mg/dL
same,POTASSIUM,[1],7.37 MEQ/L
same,SODIUM,[1],146.77 MEQ/L
same,TOTAL BILIRUBIN,[1],0.23 mg/dL
same,TOTAL PROTEIN,[1],6.17 G/DL
same,URIC ACID,[1],1.9 mg/dL
same,ABSOLUTE BASOPHIL,[2],0 CELLS/uL
same,ABSOLUTE EOSINOPHIL,[2],0 CELLS/uL
same,ABSOLUTE LYMPHOCYTE,[2],12168.33 CELLS/uL
same,ABSOLUTE MONOCYTE,[2],40 CELLS/uL
same,ABSOLUTE SEGMENTED NEUTROPHIL,[2],991.67 CELLS/uL
same,BASOPHIL,[2],0%
same,EOSINOPHIL,[2],0%
same,ERYTHROCYTE COUNT,[2],5.46 x10E6/uL
same,HEMATOCRIT,[2],35.43%
same,HEMOGLOBIN,[2],14.23 G/DL
same,LEUKOCYTE COUNT,[2],13.2 x10E3/uL
same,LYMPHOCYTE,[2],92%
same,MEAN CORPUSCULAR HEMOGLOBIN,[2],26.03 pg
same,MEAN CORPUSCULAR HEMOGLOBIN CONCENTRATION,[2],40.13 G/DL
same,MEAN CORPUSCULAR VOLUME,[2],64.83 fL
same,MONOCYTE,[2],0.33%
same,NEUTROPHIL,[2],7.67%
same,NUCLEATED RED BLOOD CELLS,[2],0 /100WBC
same,PLATELET COUNT,[2],1202.33 x10E3/uL
same,ALANINE AMINOTRANSFERASE,[2],48.67 u/L
same,ALBUMIN,[2],4.47 G/DL
same,ALKALINE PHOSPHATASE,[2],399.33 u/L
same,ASPARTATE AMINOTRANSFERASE,[2],88 u/L
same,BLOOD UREA NITROGEN,[2],16.67 mg/dL
same,CARBON DIOXIDE,[2],26.33 mmol/L
same,CHLORIDE,[2],102 MEQ/L
same,CHOLESTEROL,[2],69.33 mg/dL
same,CREATINE PHOSPHOKINASE,[2],216.67 u/L
same,CREATININE,[2],0.2 mg/dL
same,GLUCOSE,[2],150.33 mg/dL
same,LACTATE DEHYDROGENASE,[2],200.67 u/L
same,LIPASE,[2],9 u/L
same,PHOSPHORUS,[2],14.23 mg/dL
same,POTASSIUM,[2],7.61 MEQ/L
same,SODIUM,[2],147.57 MEQ/L
same,TOTAL BILIRUBIN,[2],0.17 mg/dL
same,TOTAL PROTEIN,[2],6.43 G/DL
same,URIC ACID,[2],2.1 mg/dL
same,ABSOLUTE BASOPHIL,[3],0 CELLS/uL
same,ABSOLUTE EOSINOPHIL,[3],0 CELLS/uL
same,ABSOLUTE LYMPHOCYTE,[3],13408.67 CELLS/uL
same,ABSOLUTE MONOCYTE,[3],33.33 CELLS/uL
same,ABSOLUTE SEGMENTED NEUTROPHIL,[3],1491.33 CELLS/uL
same,BASOPHIL,[3],0%
same,EOSINOPHIL,[3],0%
same,ERYTHROCYTE COUNT,[3],5.4 x10E6/uL
same,HEMATOCRIT,[3],33.33%
same,HEMOGLOBIN,[3],13.33 G/DL
same,LEUKOCYTE COUNT,[3],14.93 x10E3/uL
same,LYMPHOCYTE,[3],90.67%
same,MEAN CORPUSCULAR HEMOGLOBIN,[3],24.7 pg
same,MEAN CORPUSCULAR HEMOGLOBIN CONCENTRATION,[3],40.03 G/DL
same,MEAN CORPUSCULAR VOLUME,[3],61.67 fL
same,MONOCYTE,[3],0.33%
same,NEUTROPHIL,[3],9%
same,NUCLEATED RED BLOOD CELLS,[3],0 /100WBC
same,PLATELET COUNT,[3],1276 x10E3/uL
same,ALANINE AMINOTRANSFERASE,[3],67 u/L
same,ALBUMIN,[3],4.17 G/DL
same,ALKALINE PHOSPHATASE,[3],287.67 u/L
same,ASPARTATE AMINOTRANSFERASE,[3],90.33 u/L
same,BLOOD UREA NITROGEN,[3],14 mg/dL
same,CARBON DIOXIDE,[3],30 mmol/L
same,CHLORIDE,[3],103 MEQ/L
same,CHOLESTEROL,[3],93 mg/dL
same,CREATINE PHOSPHOKINASE,[3],208.33 u/L
same,CREATININE,[3],0.2 mg/dL
same,GLUCOSE,[3],142.33 mg/dL
same,LACTATE DEHYDROGENASE,[3],267.67 u/L
same,LIPASE,[3],10 u/L
same,PHOSPHORUS,[3],13.33 mg/dL
same,POTASSIUM,[3],6.65 MEQ/L
same,SODIUM,[3],147.53 MEQ/L
same,TOTAL BILIRUBIN,[3],0.1 mg/dL
same,TOTAL PROTEIN,[3],5.63 G/DL
same,URIC ACID,[3],1.47 mg/dL
same,ABSOLUTE BASOPHIL,[4],0 CELLS/uL
same,ABSOLUTE EOSINOPHIL,[4],0 CELLS/uL
same,ABSOLUTE LYMPHOCYTE,[4],10152.67 CELLS/uL
same,ABSOLUTE MONOCYTE,[4],25.33 CELLS/uL
same,ABSOLUTE SEGMENTED NEUTROPHIL,[4],755.33 CELLS/uL
same,BASOPHIL,[4],0%
same,EOSINOPHIL,[4],0%
same,ERYTHROCYTE COUNT,[4],5.33 x10E6/uL
same,HEMATOCRIT,[4],34.37%
same,HEMOGLOBIN,[4],13.93 G/DL
same,LEUKOCYTE COUNT,[4],10.93 x10E3/uL
same,LYMPHOCYTE,[4],92.33%
same,MEAN CORPUSCULAR HEMOGLOBIN,[4],26.17 pg
same,MEAN CORPUSCULAR HEMOGLOBIN CONCENTRATION,[4],40.53 G/DL
same,MEAN CORPUSCULAR VOLUME,[4],64.53 fL
same,MONOCYTE,[4],0.33%
same,NEUTROPHIL,[4],7.33%
same,NUCLEATED RED BLOOD CELLS,[4],0.33 /100WBC
same,PLATELET COUNT,[4],1197.33 x10E3/uL
same,ALANINE AMINOTRANSFERASE,[4],58 u/L
same,ALBUMIN,[4],4.37 G/DL
same,ALKALINE PHOSPHATASE,[4],321.33 u/L
same,ASPARTATE AMINOTRANSFERASE,[4],83.33 u/L
same,BLOOD UREA NITROGEN,[4],16 mg/dL
same,CARBON DIOXIDE,[4],26.33 mmol/L
same,CHLORIDE,[4],100.33 MEQ/L
same,CHOLESTEROL,[4],75.67 mg/dL
same,CREATINE PHOSPHOKINASE,[4],222.33 u/L
same,CREATININE,[4],0.32 mg/dL
same,GLUCOSE,[4],138 mg/dL
same,LACTATE DEHYDROGENASE,[4],303 u/L
same,LIPASE,[4],11 u/L
same,PHOSPHORUS,[4],13.23 mg/dL
same,POTASSIUM,[4],6.84 MEQ/L
same,SODIUM,[4],146.1 MEQ/L
same,TOTAL BILIRUBIN,[4],0.1 mg/dL
same,TOTAL PROTEIN,[4],6.3 G/DL
same,URIC ACID,[4],1.47 mg/dL
